Measurements taken from patent US10590078B2, “Sodium channel blockers” (Daewoong Pharmaceutical Co., Ltd., priority 2015, dated 2020).
Like-named read-outs stand apart in the source and are kept apart here.

Target: human sodium ion channel 1.7 (hNav1.7) (Homo sapiens, UniProt Q15858)
Test: Blocking effect against sodium ion channel Nav1.7, IonFlux16 auto patch clamp in hNav1.7 HEK293 cells
Type: cell-based
[1] = hNav1.7 HEK293 cells, inhibition of peak current after 50 seconds treatment, eight concentrations, read-out: IC50

Chain of human sodium ion channel 1.7 (hNav1.7) (Q15858 whole entry): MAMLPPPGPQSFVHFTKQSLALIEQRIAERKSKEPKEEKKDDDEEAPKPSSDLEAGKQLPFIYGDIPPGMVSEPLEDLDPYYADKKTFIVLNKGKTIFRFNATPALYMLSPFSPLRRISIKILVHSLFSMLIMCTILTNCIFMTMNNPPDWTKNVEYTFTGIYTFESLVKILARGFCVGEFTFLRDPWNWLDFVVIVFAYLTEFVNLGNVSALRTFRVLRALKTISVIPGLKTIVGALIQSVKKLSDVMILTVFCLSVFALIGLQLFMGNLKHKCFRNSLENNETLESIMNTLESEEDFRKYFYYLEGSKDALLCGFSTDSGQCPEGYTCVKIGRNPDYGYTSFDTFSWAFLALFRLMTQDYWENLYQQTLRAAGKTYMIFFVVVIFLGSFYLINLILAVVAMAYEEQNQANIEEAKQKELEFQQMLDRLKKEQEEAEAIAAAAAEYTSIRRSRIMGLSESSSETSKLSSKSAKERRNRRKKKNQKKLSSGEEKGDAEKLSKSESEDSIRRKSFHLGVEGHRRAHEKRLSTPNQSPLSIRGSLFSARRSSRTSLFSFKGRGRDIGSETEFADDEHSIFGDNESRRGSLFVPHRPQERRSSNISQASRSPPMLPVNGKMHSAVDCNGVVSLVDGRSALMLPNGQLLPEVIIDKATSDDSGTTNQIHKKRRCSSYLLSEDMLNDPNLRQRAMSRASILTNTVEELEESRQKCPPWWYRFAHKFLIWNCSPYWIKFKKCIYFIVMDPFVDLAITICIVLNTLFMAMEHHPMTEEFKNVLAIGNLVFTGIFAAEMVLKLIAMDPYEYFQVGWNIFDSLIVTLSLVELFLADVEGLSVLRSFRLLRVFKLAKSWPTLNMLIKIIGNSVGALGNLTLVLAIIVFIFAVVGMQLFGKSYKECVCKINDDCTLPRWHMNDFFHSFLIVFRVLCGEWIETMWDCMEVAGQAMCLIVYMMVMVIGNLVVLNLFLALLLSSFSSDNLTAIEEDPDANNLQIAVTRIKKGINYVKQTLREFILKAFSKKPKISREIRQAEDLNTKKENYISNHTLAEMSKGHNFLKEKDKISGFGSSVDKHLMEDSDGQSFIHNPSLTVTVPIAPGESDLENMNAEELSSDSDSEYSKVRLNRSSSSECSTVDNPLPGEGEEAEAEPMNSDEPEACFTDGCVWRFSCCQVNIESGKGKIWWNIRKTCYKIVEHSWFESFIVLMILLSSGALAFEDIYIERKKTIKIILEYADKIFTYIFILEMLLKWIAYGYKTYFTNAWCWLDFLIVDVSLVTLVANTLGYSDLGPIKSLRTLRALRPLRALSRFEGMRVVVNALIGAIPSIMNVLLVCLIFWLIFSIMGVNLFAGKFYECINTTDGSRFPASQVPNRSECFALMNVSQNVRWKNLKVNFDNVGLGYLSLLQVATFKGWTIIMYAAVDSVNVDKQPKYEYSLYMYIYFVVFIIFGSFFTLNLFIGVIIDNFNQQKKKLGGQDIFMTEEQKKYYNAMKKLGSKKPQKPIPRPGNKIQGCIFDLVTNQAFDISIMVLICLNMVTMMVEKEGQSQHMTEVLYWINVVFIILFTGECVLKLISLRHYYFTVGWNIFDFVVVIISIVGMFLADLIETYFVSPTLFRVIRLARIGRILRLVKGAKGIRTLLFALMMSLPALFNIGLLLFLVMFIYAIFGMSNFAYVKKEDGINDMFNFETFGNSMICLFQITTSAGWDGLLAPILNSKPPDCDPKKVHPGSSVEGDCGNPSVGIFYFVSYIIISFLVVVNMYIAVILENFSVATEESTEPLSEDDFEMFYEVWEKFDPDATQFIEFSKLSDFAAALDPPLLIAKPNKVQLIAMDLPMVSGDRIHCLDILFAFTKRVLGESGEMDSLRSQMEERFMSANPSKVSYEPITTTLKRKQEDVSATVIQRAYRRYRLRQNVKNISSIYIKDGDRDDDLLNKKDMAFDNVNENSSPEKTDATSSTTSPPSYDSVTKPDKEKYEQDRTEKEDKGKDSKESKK

| Compound | IC50 [1] [nM] | IC50 [nM] |
| --- | --- | --- |
| CS(=O)(=O)NC(=O)c1cc(Cl)c(-n2nc(-c3cc(F)ccc3F)c3cc(Cl)ccc32)cc1F [Example 76, 5-chloro-4-(5-chloro-3-(2,5-difluorophenyl)-1H-indazol-1-yl)-2-fluoro-N-(methylsulfonyl)benzamide] |  | 90 |
| CS(=O)(=O)NC(=O)c1cc(Cl)c(-n2nc(-c3cc(F)c(F)c(F)c3)c3cc(Cl)ccc32)cc1F [Example 77, 5-chloro-4-(5-chloro-3-(3,4,5-trifluorophenyl)-1H-indazol-1-yl)-2-fluoro-N-(methylsulfonyl)benzamide] |  | 20 |
| CS(=O)(=O)NC(=O)c1cc(Cl)c(-n2nc(-c3cccc(Cl)c3F)c3cc(Cl)ccc32)cc1F [Example 79, 5-chloro-4-(5-chloro-3-(3-chloro-2-fluorophenyl)-1H-indazol-1-yl)-2-fluoro-N-(methylsulfonyl)benzamide] |  | 70 |
| CS(=O)(=O)NC(=O)c1cc(Cl)c(-n2nc(-c3ccc(N)cc3)c3cc(Cl)ccc32)cc1F [Example 82, 4-(3-(4-aminophenyl)-5-chloro-1H-indazol-1-yl)-5-chloro-2-fluoro-N-(methylsulfonyl)benzamide] | 7910 |  |
| CS(=O)(=O)NC(=O)c1cc(Cl)c(-n2nc(-c3ccc(Cl)cc3)c3cc(C4CC4)ccc32)cc1F [Example 85, 5-chloro-4-(3-(4-chlorophenyl)-5-cyclopropyl-1H-indazol-1-yl)-2-fluoro-N-(methylsulfonyl)benzamide] | 600 |  |
| CS(=O)(=O)NC(=O)c1cc(Cl)c(-n2nc(N3CCOCC3)c3cc(Cl)ccc32)cc1F [Example 86, 5-chloro-4-(5-chloro-3-morpholino-1H-indazol-1-yl)-2-fluoro-N-(methylsulfonyl)benzamide] | > 10000 |  |
| Cn1nccc1-c1nn(-c2cc(F)c(C(=O)NS(C)(=O)=O)cc2Cl)c2ccc(Cl)cc12 [Example 87, 5-chloro-4-(5-chloro-3-(1-methyl-1H-pyrazol-5-yl)-1H-indazol-1-yl)-2-fluoro-N-(methylsulfonyl)benzamide] | > 3000 |  |
| Cn1cc(-c2nn(-c3cc(F)c(C(=O)NS(C)(=O)=O)cc3Cl)c3ccc(Cl)cc23)cn1 [Example 88, 5-chloro-4-(5-chloro-3-(1-methyl-1H-pyrazol-4-yl)-1H-indazol-1-yl)-2-fluoro-N-(methylsulfonyl)benzamide] | > 10000 |  |
| CS(=O)(=O)NC(=O)c1cc(Cl)c(-n2nc(-c3cn[nH]c3)c3cc(Cl)ccc32)cc1F [Example 89, 5-chloro-4-(5-chloro-3-(1H-pyrazol-4-yl)-1H-indazol-1-yl)-2-fluoro-N-(methylsulfonyl)benzamide] | > 10000 |  |
| CS(=O)(=O)NC(=O)c1cc(Cl)c(-n2nc(-c3cc[nH]n3)c3cc(Cl)ccc32)cc1F [Example 90, 5-chloro-4-(5-chloro-3-(1H-pyrazol-3-yl)-1H-indazol-1-yl)-2-fluoro-N-(methylsulfonyl)benzamide] | 11200 |  |
| Cc1ncc(-c2nn(-c3cc(F)c(C(=O)NS(C)(=O)=O)cc3Cl)c3ccc(Cl)cc23)s1 [Example 91, 5-chloro-4-(5-chloro-3-(2-methylthiazol-5-yl)-1H-indazol-1-yl)-2-fluoro-N-(methylsulfonyl)benzamide] | 1930 |  |
| COc1ccccc1-c1nn(-c2ccc(C(=O)NS(C)(=O)=O)cc2C#N)c2ccc(Cl)cc12 [Example 92, 4-(5-chloro-3-(2-methoxyphenyl)-1H-indazol-1-yl)-3-cyano-N-(methylsulfonyl)benzamide] | 5290 |  |
| CS(=O)(=O)NC(=O)c1ccc(-n2nc(-c3ccccc3C#N)c3cc(Cl)ccc32)c(C#N)c1 [Example 94, 4-(5-chloro-3-(2-cyanophenyl)-1H-indazol-1-yl)-3-cyano-N-(methylsulfonyl)benzamide] | > 10000 |  |
| CS(=O)(=O)NC(=O)c1ccc(-n2nc(-c3cccc(C#N)c3)c3cc(Cl)ccc32)c(C#N)c1 [Example 95, 4-(5-chloro-3-(3-cyanophenyl)-1H-indazol-1-yl)-3-cyano-N-(methylsulfonyl)benzamide] | > 10000 |  |
| CS(=O)(=O)NC(=O)c1ccc(-n2nc(-c3ccc(C#N)cc3)c3cc(Cl)ccc32)c(C#N)c1 [Example 96, 4-(5-chloro-3-(4-cyanophenyl)-1H-indazol-1-yl)-3-cyano-N-(methylsulfonyl)benzamide] | > 10000 |  |
| CS(=O)(=O)NC(=O)c1ccc(-n2nc(-c3cccc(C(F)(F)F)c3)c3cc(Cl)ccc32)c(C#N)c1 [Example 98, 4-(5-chloro-3-(3-(trifluoromethyl)phenyl)-1H-indazol-1-yl)-3-cyano-N-(methylsulfonyl)benzamide] | 887 |  |
| CS(=O)(=O)NC(=O)c1ccc(-n2nc(-c3ccc(C(F)(F)F)cc3)c3cc(Cl)ccc32)c(C#N)c1 [Example 99, 4-(5-chloro-3-(4-(trifluoromethyl)phenyl)-1H-indazol-1-yl)-3-cyano-N-(methylsulfonyl)benzamide] | 1340 |  |
| CS(=O)(=O)NC(=O)c1ccc(-n2nc(-c3ccc(F)cc3)c3cc(Cl)ccc32)c(C#N)c1 [Example 101, 4-(5-chloro-3-(4-fluorophenyl)-1H-indazol-1-yl)-3-cyano-N-(methylsulfonyl)benzamide] | 3020 |  |
| CS(=O)(=O)NC(=O)c1ccc(-n2nc(-c3ccccc3F)c3cc(Cl)ccc32)c(C#N)c1 [Example 102, 4-(5-chloro-3-(2-fluorophenyl)-1H-indazol-1-yl)-3-cyano-N-(methylsulfonyl)benzamide] | 1210 |  |

Continued by falling IC50 [1], values first:

| IC50 [1] [nM] | IC50 [nM] | Compound |
| --- | --- | --- |
| 590 |  | CS(=O)(=O)NC(=O)c1cc(Cl)c(-n2nc(-c3ccnc(F)c3)c3cc(Cl)ccc32)cc1F [Example 68, 5-chloro-4-(5-chloro-3-(2-fluoropyridin-4-yl)-1H-indazol-1-yl)-2-fluoro-N-(methylsulfonyl)benzamide] |
| 279 |  | CS(=O)(=O)NC(=O)c1ccc(-n2nc(-c3ccc(Cl)cc3F)c3cc(Cl)ccc32)c(C#N)c1 [Example 100, 4-(5-chloro-3-(4-chloro-2-fluorophenyl)-1H-indazol-1-yl)-3-cyano-N-(methylsulfonyl)benzamide] |
| 240 |  | CS(=O)(=O)NC(=O)c1cc(Cl)c(-n2nc(-c3ccc([N+](=O)[O-])cc3)c3cc(Cl)ccc32)cc1F [Example 81, 5-chloro-4-(5-chloro-3-(4-nitrophenyl)-1H-indazol-1-yl)-2-fluoro-N-(methylsulfonyl)benzamide] |
| 226 |  | COc1ccc(-c2nn(-c3ccc(C(=O)NS(C)(=O)=O)cc3C#N)c3ccc(Cl)cc23)cc1 [Example 93, 4-(5-chloro-3-(4-methoxyphenyl)-1H-indazol-1-yl)-3-cyano-N-(methylsulfonyl)benzamide] |
| 180 |  | CS(=O)(=O)NC(=O)c1cc(Cl)c(-n2nc(-c3ccc(F)c(F)c3)c3cc(Cl)ccc32)cc1F [Example 75, 5-chloro-4-(5-chloro-3-(3,4-difluorophenyl)-1H-indazol-1-yl)-2-fluoro-N-(methylsulfonyl)benzamide] |
| 170 |  | CS(=O)(=O)NC(=O)c1ccc(-n2nc(-c3ccccc3C(F)(F)F)c3cc(Cl)ccc32)c(C#N)c1 [Example 97, 4-(5-chloro-3-(2-(trifluoromethyl)phenyl)-1H-indazol-1-yl)-3-cyano-N-(methylsulfonyl)benzamide] |
| 130 |  | CS(=O)(=O)NC(=O)c1cc(Cl)c(-n2nc(-c3c(F)cccc3Cl)c3cc(Cl)ccc32)cc1F [Example 78, 5-chloro-4-(5-chloro-3-(2-chloro-6-fluorophenyl)-1H-indazol-1-yl)-2-fluoro-N-(methylsulfonyl)benzamide] |
| 110 |  | CC(C)Cc1ccc2c(c1)c(-c1ccccc1)nn2-c1cc(F)c(C(=O)NS(C)(=O)=O)cc1Cl [Example 84, 5-chloro-2-fluoro-4-(5-isobutyl-3-phenyl-1H-indazol-1-yl)-N-(methylsulfonyl)benzamide] |
| 80 |  | CS(=O)(=O)NC(=O)c1cc(Cl)c(-n2nc(-c3ccc(Cl)c(F)c3)c3cc(Cl)ccc32)cc1F [Example 80, 5-chloro-4-(5-chloro-3-(4-chloro-3-fluorophenyl)-1H-indazol-1-yl)-2-fluoro-N-(methylsulfonyl)benzamide] |
| 80 |  | CS(=O)(=O)NC(=O)c1cc(Cl)c(-n2nc(-c3ccc(OC(F)(F)F)cc3)c3cc(Cl)ccc32)cc1F [Example 83, 5-chloro-4-(5-chloro-3-(4-(trifluoromethoxy)phenyl)-1H-indazol-1-yl)-2-fluoro-N-(methylsulfonyl)benzamide] |
| 61 |  | CS(=O)(=O)NC(=O)c1cc(Cl)c(-n2nc(-c3cccc(Cl)c3)c3cc(Cl)ccc32)cc1F [Example 72, 5-chloro-4-(5-chloro-3-(3-chlorophenyl)-1H-indazol-1-yl)-2-fluoro-N-(methylsulfonyl)benzamide] |
| 48 |  | CS(=O)(=O)NC(=O)c1cc(Cl)c(-n2nc(-c3ccccc3Cl)c3cc(Cl)ccc32)cc1F [Example 71, 5-chloro-4-(5-chloro-3-(2-chlorophenyl)-1H-indazol-1-yl)-2-fluoro-N-(methylsulfonyl)benzamide] |
| 37 |  | CS(=O)(=O)NC(=O)c1cc(Cl)c(-n2nc(-c3cc(Cl)ccc3F)c3cc(Cl)ccc32)cc1F [Example 69, 5-chloro-4-(5-chloro-3-(5-chloro-2-fluorophenyl)-1H-indazol-1-yl)-2-fluoro-N-(methylsulfonyl)benzamide] |
| 33 |  | CS(=O)(=O)NC(=O)c1cc(Cl)c(-n2nc(-c3ccc(Cl)cc3)c3cc(Cl)ccc32)cc1F [Example 67, 5-chloro-4-(5-chloro-3-(4-chlorophenyl)-1H-indazol-1-yl)-2-fluoro-N-(methylsulfonyl)benzamide] |
| 30 |  | CS(=O)(=O)NC(=O)c1cc(Cl)c(-n2nc(-c3cc(F)cc(Cl)c3)c3cc(Cl)ccc32)cc1F [Example 73, 5-chloro-4-(5-chloro-3-(3-chloro-5-fluorophenyl)-1H-indazol-1-yl)-2-fluoro-N-(methylsulfonyl)benzamide] |
| 20 |  | CS(=O)(=O)NC(=O)c1cc(Cl)c(-n2nc(-c3ccc(F)cc3Cl)c3cc(Cl)ccc32)cc1F [Example 74, 5-chloro-4-(5-chloro-3-(2-chloro-4-fluorophenyl)-1H-indazol-1-yl)-2-fluoro-N-(methylsulfonyl)benzamide] |
